Measurements from paper PMC9179882 (Cancers, 2022).

Columns and labels:
[1] = tested on: SW480 cells; experiment: Resazurin cytotoxic assay, tumoral SW480; assay type: cell-based, human; settings: Homo sapiens, SW480, 48 h, SW480 primary tumor cells, mean ± SD
Method: (§1) CRL1790, SW480 and SW620 cell lines were purchased from American Type Culture Collection (ATCC). Cells were cultured at 37 °C with 5% CO2 atmosphere in medium supplemented with 10% fetal bovine serum (10270106, Gibco, Waltham, MA, USA), 10 mg/mL penicillin, 10 mg/mL streptomycin, […] amphotericin, and 0.03% L-Glutamine as recommended by the ATCC. MEM medium (M5650, Merck, Darmstadt, Germany) was used for non-tumoral CRL1790, and RPMI 1640 medium (L0501-500, Biowest, Nuaillé, France) was used for both tumoral SW480 and SW620 cell lines.
(§2) Cytotoxic activity was screened using Resazurin Fluorimetric Assay (R7017, Merck, Darmstadt, Germany), according to the manufacturer’s protocol. Cells seeded into 96-well plates (8 × 10^3 cells/well) were treated for 48 h with phenolic compounds at increasing concentrations from 2 × 10^−5 µM to 100 µM. Negative control with vehicle DMSO was included. Fluorescence was determined using Nanoquant Infinite M200 Pro multi-plate reader (Tecan). Half-maximal inhibitory concentration (IC50) values were determined in triplicate by non-linear regression with Graphpad (Prism).
(§3) Natural products such as phenolic compounds have recently attracted significant attention for their anticancer properties. […] We used three different cell lines to mimic CRC progression. In particular, CRL1790 are colon epithelial cells simulating the non-tumoral stage. In addition, SW480 is Dukes’ type B colorectal adenocarcinoma cells representing the primary tumor. Finally, SW620 constitutes Dukes’ type C colorectal adenocarcinoma derived from metastasic site cells to mimic the most aggressive metastasic stage. […] Cytotoxic potency upon 48 h treatment with phenolic compounds was examined by determination of half-maximal inhibitory concentration (IC50) values using the Resazurin method (Table 1). Only GA inhibited cell growth in SW480 and SW620 at clinically-relevant concentrations (IC50 values lower than 30 µM).

[2] = tested on: SW620 cells; experiment: Resazurin cytotoxic assay, metastatic SW620; assay type: cell-based, human; settings: Homo sapiens, SW-620, 48 h, mean ± SD
Method: as §1, §2, §3

[3] = tested on: CRL1790 cells; experiment: Resazurin cytotoxic assay, non-tumoral CRL1790; assay type: cell-based; settings: Homo sapiens, Epithelial cell, CRL1790 non-tumoral colon epithelial cells, 48 h, mean ± SD
Method: as §1, §2, §3

[4] = tested on: G4 structures in SW480 cells; experiment: BG4 immunofluorescence (G4 stabilization in cells); assay type: cell-based, human; settings: SW480, CX5461 10 µM for 6 h, positive control
Method: Cells were seeded on 13 mm circular coverslips and placed in 24-well plates. After exposure to different experimental conditions, fixation was performed with 4% (v/v) paraformaldehyde (P6148, Merck, Darmstadt, Germany) for 10 min at room temperature (RT), permeabilization with 0.1% (v/v) Triton-X100 (T8787, Merck, Darmstadt, Germany) for 10 min and blocking with 10% bovine serum albumin (A7906, Merck, Darmstadt, Germany) containing 0.5% (v/v) Triton-X100 for 30 min at RT. Primary antibodies were incubated for 1 h at RT and secondary antibodies for 30 min at 4 °C in darkness. Finally, all coverslips were mounted onto slides (J2800AMNZ, Thermo scientific, Waltham, MA, USA), including DAPI (4′,6-diamidino-2-phenylindole) for nuclear counterstain. Images were acquired on a Confocal Zeiss LSM 710 inverted microscope with a 63× immersion objective. In a different manner, BG4 immunofluorescence was conducted as previously described [11]. BG4 mean nuclear fluorescence intensity was quantified using Fiji software (N > 250).

[5] = tested on: G4-enriched genes (5′ETS, BCL2, CMYB, CMYC, KRAS, VEGFA) in SW480 cells; experiment: qRT-PCR of G4-enriched genes; assay type: cell-based, human; settings: SW480, CX5461 10 µM for 6 h
Method: Total cellular RNA was isolated from different experimental group cells using Trizol Reagent (15596, Invitrogen, Waltham, MA, USA). Reverse transcription was conducted using RevertAid First Strand cDNA Synthesis Kit (K1622, Thermo Scientific, MA, USA) according to manufacturer’s protocol with random primers. Quantitative PCR was performed with SYBR Green (4309155, Thermo Scientific, MA, USA) on 7900HT Fast Real-time PCR System (Applied Biosystems). Target mRNA levels were normalized to actin (ΔCt), and fold change was determined using the 2^−ΔΔCt method. Experiments were conducted in triplicate.
In this context, we aimed to analyze whether GA affects the transcription of G4-enriched genes by qRT-PCR. In the case of ribosomal DNA, we measured the short-lived 5′ external transcribed spacer (5′ETS) of the pre-RNA, whichreflects the ribosomal RNA synthesis rate [19].

[6] = tested on: γH2AX in SW480 cells; experiment: Western blot of γH2AX (DNA damage); assay type: cell-based, human; settings: SW480, CX5461 10 µM for 6 h
Description: Protein extract from different experimental conditions was extracted using RIPA lysis buffer containing 1% PMSF (P7626, Merck, Darmstadt, Germany), 1% protease inhibitor cocktail (PIC) (P8340, Merck, Darmstadt, Germany), and 1% sodium orthovanadate (S6508, Merck, Darmstadt, Germany). Quantification of protein levels was achieved by Bradford method following manufacturer’s protocol (500-0006, BioRad, Hercules, CA, USA). Protein content was loaded on 12% SDS-polyacrylamide gel (1610148, BioRad, Hercules, CA, USA) for electrophoresis and wet transferred to nitrocellulose membranes (66485, Pall corporation, New York, NY, USA). Membranes were blocked with 5% semi-skimmed milk and incubated overnight at 4 °C with antibodies for γH2AX and actin as housekeeping. Then, membranes were incubated with horseradish peroxidase-labeled antibodies for 1 h at RT. After luminal solution (1705060, BioRad, Hercules, CA, USA) incubation, chemiluminiscence signals were measured using Image Quant LAS 4000 (GE Healthcare Life Sciences). […] Protein levels were quantified by ImageJ.
Then, we investigated DNA damage response because the induction of double-strand breaks is a well-known G4s stabilization associated effect [20]. To this end, we measured the phosphorylation of histone H2AX on Ser-139 (γH2AX), a DNA damage marker, by Western Blot.

Row | SMILES | IC50 [1] [µM] | IC50 [2] [µM] | IC50 [3] [µM] | nuclear BG4 signal [4] | transcription of G4-enriched genes [5] | DNA damage (γH2AX protein levels) [6]
1 | OC[C@H]1O[C@@H](Oc2cc(O)cc(/C=C/c3ccc(O)cc3)c2)[C@H](O)[C@@H](O)[C@@H]1O [Piceid, piceid] | > 100 | > 100 | > 100 | – | – | –
2 | OCCc1ccc(O)cc1 [Tyrosol, tyrosol] | > 100 | > 100 | > 100 | – | – | –
3 | Cc1cnc(CNC(=O)c2c(=O)c3ccc(N4CCCN(C)CC4)nc3n3c2sc2ccccc23)cn1 [CX5461] | – | – | – | A similar effect was observed | influenced the expression levels of some of these genes | significantly induced DNA damage
4 | OCCc1ccc(O)c(O)c1 [Hydroxytyrosol, hydroxytyrosol] | > 100 | 71.9 ± 3.52 | > 100 | – | – | –
5 | Oc1ccc(/C=C/c2cc(O)cc(O)c2)cc1 [Resveratrol, resveratrol] | > 100 | > 100 | > 100 | – | – | –
